Experimental data: patent US7030104B2, “Topical oestroprogestational compositions with a systemic effect” (Laboratoire Theramex, priority 2000, dated 2006)

Assays:
[1] = In vitro percutaneous passage on static diffusion cells (Franz cells), radiolabelled active ingredients; assay type: in vitro ADME, human; conditions: 24 hours
Procedure: Percutaneous absorption is studied in vitro on static diffusion cells, called Franz cells™. The percutaneous passage of the active ingredients is evaluated by measuring the radioactivity using labelled molecules (carbon 14, tritium). The overall quantity of active ingredient absorbed is measured, at different times, in the receiving compartment.
A cutaneous biopsy is horizontally maintained between the two parts of the cell thus delimiting on both sides of the sample, two compartments: one of them epidermic, constituted by a glass cylinder, of a defined area (1.76 cm^2), placed on the upper surface of the skin; the other dermic (or receptor), on the underside of the biopsy, comprises a fixed volume reservoir with a side nozzle. The two compartments are kept in place through the intermediary of a clamp. […]
The preparations to be studied are applied in weighed quantities, using a spatula over all of the epidermal area circumscribed by the glass cone. […] The samples removed are treated with Pico-fluorine 40™ scintillation liquid and the activity measured using a liquid scintillation counter. […]
The percutaneous passage of the active ingredients is evaluated at the time of each sampling by measuring the cumulative quantity (μg) of active ingredient as a function of time.

[2] = known pharmacokinetics; Patent FR 2.776.191; cited from earlier work

SMILES | change of percutaneous passage of nomegestrol acetate caused by presence of estradiol ([1]; gel G29-299 (NAc + E2) versus G29-287 (NAc only)) | plasmatic concentration of nomegestrol acetate for clinical effectiveness (endometrial effect through bleedings) [2] | change of percutaneous penetration of estradiol caused by presence of nomegestrol acetate ([1]; gel G29-299 (NAc + E2) versus TX11323 (E2 only))
CC(=O)O[C@]1(C(C)=O)CC[C@H]2[C@@H]3C=C(C)C4=CC(=O)CC[C@@H]4[C@H]3CC[C@@]21C [nomegestrol acetate] | +39% | ≥ 0.7 ng/mL | 
C[C@]12CC[C@@H]3c4ccc(O)cc4CC[C@H]3[C@@H]1CC[C@@H]2O [estradiol, 17beta estradiol] |  |  | −51%
